Test results from patent US9550796B2, “Pyrrolopyrrolone derivatives and their use as BET inhibitors” (NOVARTIS AG, priority 2013, dated 2017).

How the values were obtained:
[1] = biological target: CREBBP (Homo sapiens (Human), UniProt Q92793); test: AlphaScreen in-vitro binding assay for CREBBP; details: 324 nM His-CREBBP (1081-1197), acetyl-histone H4 (AcK 5, 8, 12) peptide
Description: AlphaScreen In-Vitro Binding Assay for CREBBP
In order to assess bromodomain selectivity, we set up a binding assay using the bromodomain encoded by the CREBBP gene. […] The assay was started by stepwise addition of 4.5 μL per well of bromo domain protein (50 mM HEPES, pH 7.5, 0.005% Tween20, 0.02% BSA, 150 mM NaCl, 324 nM His-CREBBP (1081-1197) (custom production at Viva Biotech Ltd.)) and 4.5 μL per well of peptide solution (50 mM HEPES, pH 7.5, 0.005% Tween20, 0.02% BSA, 150 mM NaCl, 120 nM acetyl-histone H4 (AcK 5, 8, 12) (Biosyntan GmbH)). Reactions were incubated at 30° C. for 35 minutes. Subsequently 4.5 μL per well detection mix (50 mM HEPES, pH 7.5, 0.005% Tween20, 0.02% BSA, 150 mM NaCl, 45 μg/ml Ni-chelate acceptor beads, 45 μg/mL streptavidin-donor beads) (Perkin Elmer)) were added. After 60 minutes incubation at room temperature, plates were measured in a Perkin Elmer EnVision multilabel reader. IC50 values were determined from percent inhibition values at different compound concentrations by non-linear regression analysis.
Test compounds were dissolved in DMSO (10 mM) and transferred into 1.4 mL flat bottom or V-shaped Matrix tubes carrying a unique 2D matrix. The stock solutions were stored at […] if not used immediately. For the test procedure the vials were defrosted and identified by a scanner whereby a working sheet was generated that guided the subsequent working steps. Compound dilutions were made in 96 well plates. This format enabled the assay of maximally […] at 8 concentrations (single points) including 4 reference compounds, if desired (known BET inhibitors from the prior art, for this and other assays of the type disclosed herein). The dilution protocol included the production of “pre-dilution plates”, “master plates” and “assay plates”.
Polypropylene 96-well plates were used as pre-dilution plates. A total of 4 pre-dilution plates were prepared including 10 test compounds each on the plate positions A1-A10, one standard compound at A11 and one DMSO control at […]. All dilution steps were done on a HamiltonSTAR robot.
30 μL of individual compound dilutions including standard compound and controls of the 4 “pre-dilution plates” were transferred into a 384-well “master plate” including the following concentrations 10000, […], 1000, 300, 100, 30, 10 and 3 μM, respectively in 90% of DMSO.
Identical “assay plates” were then prepared by pipetting 50 nL each of compound dilutions of the “master plates” into 384-well “assay plates” by means of a HummingBird 384-channel dispenser. These plates were used directly for the assay which was performed in a total volume of 13.55 μL.

[2] = test system: THP-1; test: Cell growth inhibition assay (CellTiter-Glo), THP-1; assay type: cell-based, human; details: THP-1 cells, 4 days; for GI50: Homo sapiens, 96 h, half-maximal growth inhibition; for THP-1 TGI: total growth inhibition
Description: (§1) Cell Growth Inhibition Assay
(§2) The human leukemia cell lines MV-4-11, THP-1 and K-562 were employed to characterize the effect of BET inhibitors on cellular proliferation and viability. Cells were obtained from the American Type Culture Collection (ATCC) and cultured at 37° C. in a humidified 5% CO2 incubator in the following media: MV-4-11: DMEM high glucose (Animed #1-26F01-I), 10% FCS (Animed #2-01F26-I), 4 mM L-Glutamine (Animed #5-10K50), 1 mM Sodium Pyruvate (Animed # G03625P), 1× Penicillin-Streptomycin (Animed # F12478P); K-562: Iscove's MEM (Animed #1-28F16-I), 10% FCS (Animed #2-01F26-I), 4 mM L-Glutamine (Animed #5-10K50), 1× Penicillin-Streptomycin (Animed # F12478P); THP-1: RPMI-1640 (Animed #1-41F01-I), 10% FCS (Animed #2-01F26-I), 2 mM L-Glutamine (Animed #5-10K50), 10 mM HEPES (Animed #5-31F100), 1 mM Sodium Pyruvate (Animed # G03625P), 1× Penicillin-Streptomycin (Animed # F12478P). The AML lines MV-4-11 and THP-1 are very sensitive to BET inhibitors and show massive cell death upon BET inhibition (Zuber et al., Nature, 478 (2011), 524-8). Compound-mediated suppression of cell proliferation/viability was assessed by quantification of cellular ATP levels using the CellTiter-Glo (CTG) reagent (Promega). Briefly, cells were seeded in 20 μl fresh medium into 384-well plates, followed by addition of 5 μL medium containing compound dilutions at 5-fold their final intended concentration. Dose-response effects were assessed by 3-fold serial dilutions of the test compound, starting at 10 μM. Following incubation of the cells for 4 days at 37° C. and 5% CO2, the effect of inhibitors on cell viability was quantified following addition of 20 μl CTG and luminescence quantification (integration time: 100 ms) as per vendor manual, using a correspondingly equipped Tecan M200 multi-mode platereader (TECAN, Switzerland). For data analysis, the assay background value determined in wells containing medium, but no cells, was subtracted from all data points. To enable differentiation of cytotoxic from cytostatic compounds, the number of viable cells is assessed relative to that observed at the time of compound addition using a separate cell plate (day 0). The effect of a particular test compound concentration on cell proliferation/viability is expressed as percentage of the background- and day 0-corrected luminescence reading obtained for cells treated with vehicle only (DMSO, 0.1% final concentration), which is set as 100%, whereas that luminescence reading for wells containing medium is set as −100%. Compound concentrations leading to half-maximal (IC50) and total growth inhibition (TGI) were determined using standard four parameter curve fitting.

[3] = test system: MV-4-11; test: Cell growth inhibition assay (CellTiter-Glo), MV-4-11; assay type: cell-based, human; details: MV-4-11 cells, 4 days; for GI50: Homo sapiens, MV4-11, 96 h, half-maximal growth inhibition; for MV-4-11 TGI: total growth inhibition
Description: as §1, §2

[4] = test system: K-562; test: Cell growth inhibition assay (CellTiter-Glo), K-562; assay type: cell-based, human; details: K-562 cells, 4 days; for GI50: Homo sapiens, K562, 96 h, half-maximal growth inhibition; for K-562 TGI: total growth inhibition
Description: as §1, §2

[5] = biological target: BRD4 (Homo sapiens (Human), UniProt O60885); test: TR-FRET in-vitro binding assay for BRD4; details: 45 nM His-Brd4(44-477), acetyl-histone H4 (AcK 5, 8, 12, 16) peptide
Description: (§3) TR-FRET In-Vitro Binding Assays for BRD2, BRD3, and BRD4: All assays were performed in 384-well microtiter plates. […] Liquid handling and incubation steps were done on an Innovadyne Nanodrop Express equipped with a robotic arm (Thermo CatX, Perkin Elmer/Caliper Twister II) and an incubator (Liconic STX40, Thermo Cytomat 2C450). The assay plates were prepared by addition of 50 nl per well of compound solution in 90% DMSO HummingBird nanodispenser (Zinsser Analytic). […] Reactions were incubated at 30° C. for 35 minutes. […] After 35 minutes incubation at 30° C., plates were measured in a Perkin Elmer EnVision multilabel reader. […] The stock solutions were stored at […] if not used immediately. For the test procedure the vials were defrosted and identified by a scanner whereby a working sheet was generated that guided the subsequent working steps. Compound dilutions were made in 96 well plates. This format enabled the assay of maximally […] at 8 concentrations (single points) including 4 reference compounds, if desired (known BET inhibitors from the prior art, for this and other assays of the type disclosed herein). The dilution protocol included the production of “pre-dilution plates”, “master plates” and “assay plates”. Polypropylene 96-well plates were used as pre-dilution plates. […] All dilution steps were done on a HamiltonSTAR robot. […] Identical “assay plates” were then prepared by pipetting 50 nL each of compound dilutions of the “master plates” into 384-well “assay plates” by means of a HummingBird 384-channel dispenser. These plates were used directly for the assay which was performed in a total volume of 13.55 μL.

[6] = biological target: BRD3 (Homo sapiens (Human), UniProt Q15059); test: TR-FRET in-vitro binding assay for BRD3; details: 45 nM His-Brd3(20-477), acetyl-histone H4 (AcK 5, 8, 12, 16) peptide
Description: as §3

BRD3, sequence (Q15059 20-477): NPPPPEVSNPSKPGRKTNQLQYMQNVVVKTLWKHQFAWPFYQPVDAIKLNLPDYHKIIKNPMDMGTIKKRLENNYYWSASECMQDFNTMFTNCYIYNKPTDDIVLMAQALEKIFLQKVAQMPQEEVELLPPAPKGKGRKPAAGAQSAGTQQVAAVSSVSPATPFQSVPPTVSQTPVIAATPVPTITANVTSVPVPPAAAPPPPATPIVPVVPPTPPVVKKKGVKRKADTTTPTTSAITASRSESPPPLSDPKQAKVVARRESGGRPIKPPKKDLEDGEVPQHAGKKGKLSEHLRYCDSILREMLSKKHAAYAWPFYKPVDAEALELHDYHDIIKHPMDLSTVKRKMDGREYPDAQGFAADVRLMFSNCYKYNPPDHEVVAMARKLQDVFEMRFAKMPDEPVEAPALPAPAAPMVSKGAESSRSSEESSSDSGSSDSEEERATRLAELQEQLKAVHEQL
CREBBP, sequence (Q92793 1081-1197): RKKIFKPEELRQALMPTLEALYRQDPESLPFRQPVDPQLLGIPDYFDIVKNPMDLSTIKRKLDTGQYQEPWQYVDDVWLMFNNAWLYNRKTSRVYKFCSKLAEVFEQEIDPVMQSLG

CNC(=O)c1cn(C)c2c1C(=O)N(c1cc(C)c3nnn(C)c3c1)C2c1ccc(Cl)cc1 (stereo not drawn) [Example 98, 6-(4-chlorophenyl)-5-(1,4-dimethyl-1H-benzo[d][1,2,3]triazol-6-yl)-N,1-dimethyl-4-oxo-1,4,5,6-tetrahydropyrrolo[3,4-b]pyrrole-3-carboxamide] was tested, and the IC50 [1] was 6700 nM, the GI50 [2] was 5.57 nM and the “THP-1 TGI” value [2] was 15.97 nM. For the same molecule, the GI50 [3] was 4.95 nM, the “MV-4-11 TGI” value [3] was 12.53 nM and the GI50 [4] was 37.3 nM. The “K-562 TGI” value [4] was greater than 8200 nM, the IC50 [5] was less than 11 nM and the IC50 [6] was 12 nM.

Cc1cn(C)c2c1C(=O)N(c1cc(C)c3nnc(C(F)F)n3c1)C2c1ccc(Cl)cc1 (stereo not drawn) [Example 107, 6-(4-chlorophenyl)-5-(3-(difluoromethyl)-8-methyl-[1,2,4]triazolo[4,3-a]pyridin-6-yl)-1,3-dimethyl-5,6-dihydropyrrolo[3,4-b]pyrrol-4(1H)-one] was tested, and the IC50 [1] was 27900 nM, the GI50 [2] was 15.4 nM and the “THP-1 TGI” value [2] was 22 nM. For the same molecule, the GI50 [3] was 7.2 nM, the “MV-4-11 TGI” value [3] was 22.95 nM and the GI50 [4] was 197 nM. The “K-562 TGI” value [4] was greater than 10000 nM, the IC50 [5] was 17 nM and the IC50 [6] was 21 nM.

With CNC(=O)c1cn(C)c2c1C(=O)N(c1cc(C)c3nnc(C(F)F)n3n1)C2c1ccc(Cl)cc1 (stereo not drawn) [Example 108, 6-(4-chlorophenyl)-5-(3-(difluoromethyl)-8-methyl-[1,2,4]triazolo[4,3-b]pyridazin-6-yl)-N,1-dimethyl-4-oxo-1,4,5,6-tetrahydropyrrolo[3,4-b]pyrrole-3-carboxamide] the IC50 [1] was greater than 37000 nM, the GI50 [2] was 32.3 nM and the “THP-1 TGI” value [2] was 72.75 nM. The GI50 [3] was 43.2 nM, the “MV-4-11 TGI” value [3] was 78.35 nM and the GI50 [4] was 322 nM. For the same molecule, the “K-562 TGI” value [4] was greater than 10000 nM, the IC50 [5] was 16 nM and the IC50 [6] was 19 nM.

CC(=O)Nc1cn(C)c2c1C(=O)N(c1cc(C)c3nnc(C(F)F)n3n1)C2c1ccc(Cl)cc1 (stereo not drawn) [Example 109, N-(6-(4-chlorophenyl)-5-(3-(difluoromethyl)-8-methyl-[1,2,4]triazolo[4,3-b]pyridazin-6-yl)-1-methyl-4-oxo-1,4,5,6-tetrahydropyrrolo[3,4-b]pyrrol-3-yl)acetamide] was tested, and the IC50 [1] was greater than 37000 nM, the GI50 [2] was 17.3 nM and the “THP-1 TGI” value [2] was 38.6 nM. For the same molecule, the GI50 [3] was 19.4 nM, the “MV-4-11 TGI” value [3] was 40.75 nM and the GI50 [4] was 114 nM. The “K-562 TGI” value [4] was greater than 10000 nM, the IC50 [5] was 23 nM and the IC50 [6] was 20 nM.

With Cc1cc(N2C(=O)c3c(NC(=O)CCN(C)C)cn(C)c3C2c2ccc(Cl)cc2)nn2c(C(F)F)nnc12 (stereo not drawn) [Example 110, N-(6-(4-chlorophenyl)-5-(3-(difluoromethyl)-8-methyl-[1,2,4]triazolo[4,3-b]pyridazin-6-yl)-1-methyl-4-oxo-1,4,5,6-tetrahydropyrrolo[3,4-b]pyrrol-3-yl)-3-(dimethylamino)propanamide] the IC50 [1] was greater than 37000 nM, the GI50 [2] was 257 nM and the “THP-1 TGI” value [2] was 293.5 nM. The GI50 [3] was 10 nM, the “MV-4-11 TGI” value [3] was 25.5 nM and the GI50 [4] was 211 nM. For the same molecule, the “K-562 TGI” value [4] was 5640 nM, the IC50 [5] was 30 nM and the IC50 [6] was 37 nM.

CNC(=O)Nc1cn(C)c2c1C(=O)N(c1cc(C)c3nnc(C(F)F)n3n1)C2c1ccc(Cl)cc1 (stereo not drawn) [Example 111, 1-(6-(4-chlorophenyl)-5-(3-(difluoromethyl)-8-methyl-[1,2,4]triazolo[4,3-b]pyridazin-6-yl)-1-methyl-4-oxo-1,4,5,6-tetrahydropyrrolo[3,4-b]pyrrol-3-yl)-3-methylurea] was tested, and the IC50 [1] was greater than 37000 nM, the GI50 [2] was 10.7 nM and the “THP-1 TGI” value [2] was 30.1 nM. The GI50 [3] was 13.2 nM, the “MV-4-11 TGI” value [3] was 31.2 nM and the GI50 [4] was 113 nM. For the same molecule, the “K-562 TGI” value [4] was greater than 10000 nM, the IC50 [5] was less than 11 nM and the IC50 [6] was 19 nM.

For Cc1cc(N2C(=O)c3c(C(=O)NCCN(C)C)cn(C)c3C2c2ccc(Cl)cc2)cc2c1nnn2C (stereo not drawn) [Example 112, 6-(4-chlorophenyl)-5-(1,4-dimethyl-1H-benzo[d][1,2,3]triazol-6-yl)-N-(2-(dimethylamino)ethyl)-1-methyl-4-oxo-1,4,5,6-tetrahydropyrrolo[3,4-b]pyrrole-3-carboxamide], the IC50 [1] was 17300 nM, the GI50 [2] was 39.3 nM and the “THP-1 TGI” value [2] was 95.95 nM. The GI50 [3] was 19.4 nM, the “MV-4-11 TGI” value [3] was 34.75 nM and the GI50 [4] was 409 nM. For the same molecule, the “K-562 TGI” value [4] was greater than 10000 nM, the IC50 [5] was 120 nM and the IC50 [6] was 64 nM.
